# Where two headings read alike, the source gives them in different places. Residues, ends and D or L forms follow the SMILES beside them.
# Key:
# [1] = tested on: cells of rat pituitary glands; type: cell-based
# Procedure: To determine the effectiveness of the peptides to inhibit the release of growth hormone, in vitro radioimmunoassays are carried out using the SS-28 analogs in side-by-side comparison with equimolar concentrations of somotostatin-14 having a known effectiveness to inhibit the release of growth hormone induced by the application of isobutyl methyl xanthine to pituitary cells. Cultures are used which include cells of rat pituitary glands removed some four to five days previously in a system that minimizes enzymatic degradation, generally following the procedure set forth in Vale et al., Methods in Enzymology, Hormones and Cyclic Nucleotides (1975) Vol. 37, p. 82. Both cultures of a defined standard medium and cultures which are considered optimal for the secretion of growth hormone, as a result of having additions of either 2% or 10% of serum from a foetal calf, are used for the comparative testing.
# glucagon secretion = type: in vivo, rats
# Procedure: (§1) In vivo experiments are carried out with the SS-28 analogs, using the procedure described in Brown et al., Metabolism (1976) Vol. 25, pp. 1501-1503, to determine the potency, relative to somatostatin-14 to inhibit the secretion of glucagon and insulin stimulated by the administration of arginine to groups of six rats.
# insulin secretion = type: in vivo, rats
# Procedure: as §1
# [2] = juvenile-type diabetics, complete absence of circulating insulin; cited from earlier work
# [3] = rats, arginine-stimulated secretion, SS-14 = 1
Structure (SMILES),"In Vitro Growth Hormone (potency to inhibit release, relative to SS-14) [1]","In Vivo Glugacon (potency to inhibit secretion, relative to SS-14) (glucagon secretion; rat, in vivo)","In Vivo Insulin (potency to inhibit secretion, relative to SS-14) (insulin secretion; rat, in vivo)","In Vitro Growth Hormone (potency to inhibit release, relative to SS-14) ([1]; rat pituitary cell cultures, isobutyl methyl xanthine-induced GH release, SS-14 = 1)","In Vivo Glugacon (potency to inhibit secretion, relative to SS-14) (glucagon secretion; [3])","In Vivo Insulin (potency to inhibit secretion, relative to SS-14) (insulin secretion; [3])",diminution of fasting hyperglycemia [2] [%]
"CC(C)C[C@H](NC(=O)[C@H](C)NC(=O)[C@@H]1CCCN1C(=O)[C@H](CC(N)=O)NC(=O)[C@H](CO)NC(=O)[C@H](CC(N)=O)NC(=O)[C@H](C)NC(=O)[C@@H](N)CO)C(=O)N[C@@H](C)C(=O)N1CCC[C@H]1C(=O)N[C@@H](CCCNC(=N)N)C(=O)N[C@@H](CCC(=O)O)C(=O)N[C@@H](CCCNC(=N)N)C(=O)N[C@@H](CCCCN)C(=O)N[C@@H](C)C(=O)NCC(=O)N[C@H]1CSSC[C@@H](C(=O)O)NC(=O)[C@H](CO)NC(=O)[C@H]([C@@H](C)O)NC(=O)[C@H](Cc2ccc(O)cc2)NC(=O)[C@H]([C@@H](C)O)NC(=O)[C@H](CCCCN)NC(=O)[C@@H](Cc2c[nH]c3ccccc23)NC(=O)[C@H](Cc2ccccc2)NC(=O)[C@H](Cc2ccccc2)NC(=O)[C@H](CC(N)=O)NC(=O)[C@H](CCCCN)NC1=O [Peptide 1, [Leu^8, D-Trp^22, Tyr^25]--SS-28] (HELM PEPTIDE1{S.A.N.S.N.P.A.L.A.P.R.E.R.K.A.G.C.K.N.F.F.[dW].K.T.Y.T.S.C}$PEPTIDE1,PEPTIDE1,17:R3-28:R3$$$V2.0)",4.84,–,–,–,–,–,–
"CSCC[C@H](NC(=O)[C@H](C)NC(=O)[C@@H]1CCCN1C(=O)[C@H](CC(N)=O)NC(=O)[C@H](CO)NC(=O)[C@H](CC(N)=O)NC(=O)[C@H](C)NC(=O)[C@@H](N)CO)C(=O)N[C@@H](C)C(=O)N1CCC[C@H]1C(=O)N[C@@H](CCCNC(=N)N)C(=O)N[C@@H](CCC(=O)O)C(=O)N[C@@H](CCCNC(=N)N)C(=O)N[C@@H](CCCCN)C(=O)N[C@@H](C)C(=O)NCC(=O)N[C@H]1CSSC[C@@H](C(=O)O)NC(=O)[C@@H](CO)NC(=O)[C@H]([C@@H](C)O)NC(=O)[C@H](Cc2ccccc2)NC(=O)[C@H]([C@@H](C)O)NC(=O)[C@H](CCCCN)NC(=O)[C@@H](Cc2c[nH]c3ccccc23)NC(=O)[C@H](Cc2ccccc2)NC(=O)[C@H](Cc2ccccc2)NC(=O)[C@H](CCCCN)NC1=O [Peptide 3, desAsn^19 [D-Trp^22, D-Ser^27]--SS-28] (HELM PEPTIDE1{S.A.N.S.N.P.A.M.A.P.R.E.R.K.A.G.C.K.F.F.[dW].K.T.F.T.[dS].C}$PEPTIDE1,PEPTIDE1,17:R3-27:R3$$$V2.0)",0.1,1,145,–,–,–,–
"CSCC[C@H](NC(=O)[C@H](C)NC(=O)[C@@H]1CCCN1C(=O)[C@H](CC(N)=O)NC(=O)[C@H](CO)NC(=O)[C@H](CC(N)=O)NC(=O)[C@H](C)NC(=O)[C@@H](N)CO)C(=O)N[C@@H](C)C(=O)N1CCC[C@H]1C(=O)N[C@@H](CCCNC(=N)N)C(=O)N[C@@H](CCC(=O)O)C(=O)N[C@@H](CCCNC(=N)N)C(=O)N[C@@H](CCCCN)C(=O)N[C@@H](C)C(=O)NCC(=O)N[C@H]1CSSC[C@H](C(=O)O)NC(=O)[C@H](CO)NC(=O)[C@H](Cc2ccccc2)NC(=O)[C@H]([C@@H](C)O)NC(=O)[C@H](CCCCN)NC(=O)[C@@H](Cc2c[nH]c3ccccc23)NC(=O)[C@H](Cc2ccccc2)NC(=O)[C@H](Cc2ccccc2)NC1=O [Peptide 4, desAA^18,19,26 [D-Trp^22,D-Cys^28]--SS-28] (HELM PEPTIDE1{S.A.N.S.N.P.A.M.A.P.R.E.R.K.A.G.C.F.F.[dW].K.T.F.S.[dC]}$PEPTIDE1,PEPTIDE1,17:R3-25:R3$$$V2.0)",1.51,14,18,–,–,–,–
"C[C@H](N)C(=O)NCC(=O)N[C@H]1CSSC[C@@H](C(=O)O)NC(=O)[C@H](CO)NC(=O)[C@H]([C@@H](C)O)NC(=O)[C@H](Cc2ccccc2)NC(=O)[C@H]([C@@H](C)O)NC(=O)[C@H](CCCCN)NC(=O)[C@H](Cc2c[nH]c3ccccc23)NC(=O)[C@H](Cc2ccccc2)NC(=O)[C@H](Cc2ccccc2)NC(=O)[C@H](CC(N)=O)NC(=O)[C@H](CCCCN)NC1=O [SS-14, somatostatin]",–,–,–,1,1,1,≤ 50
